Experimental data as given in patent US20250164468A1, “Method for Cellular Lifespan Measurement” (AGENCY FOR SCIENCE, TECHNOLOGY AND RESEARCH, priority 2022, published 2025).

What was measured:
Assay type in all cases: cell-based, Saccharomyces cerevisiae
[1] = test system: prototrophic yeast strain (CEN.PK113-7D); assay: Propidium iodide fluorescence-based chronological lifespan (CLS) method in yeast, incl. high-throughput screening; conditions: for Yeast CLS increase / PI intensity: 100 μM tested; for Yeast CLS increase: Yes/No call; for PI intensity: chronological age point day 7 (72 h growth = day 1), lower PI = more survival
Procedure: Chronological lifespan (CLS) experiments were conducted in 96-well plates with 200 μL yeast culture. The prototrophic wild-type yeast strain (CEN.PK113-7D) and snf1Δ deletion strains were grown in the SD medium in 96-well plates at 30° C. Saccharomyces cerevisiae BY4743 strain was grown in the SD medium supplemented with histidine (40 mg/L), leucine (160 mg/L), and uracil (40 mg/L) in 96-well plates at 30° C. For assays testing the effect of rapamycin, cellular inoculum was transferred into 96-well plates containing serially double-diluted concentrations (0 to 10 nM) of rapamycin. […] Likewise, cellular inoculum was transferred into the 96-well plates containing serially double-diluted concentrations (0-8 mM) of D-fructose, D-mannitol, D-maltose, and D-sorbitol. Cells were incubated at 30° C., and the growth was measured at different time points. […] Cell survival was quantified at various age time points by three different approaches: (i) propidium iodide fluorescence-based method, (ii) outgrowth in YPD liquid medium and (iii) spotting assay (FIG. 1).
40 μL yeast cells on different age time points were transferred into a 96-well plate different to the 96-well plate in which the CLS analysis was performed. Cells were washed and incubated in 100 μL 1×PBS with PI (5 μg/mL) for 15 minutes in the dark. Positive and negative sample control were included for quantitative analysis. Positive control (cells boiled at 100° C. for 15 min) was PI-stained and processed in the same 96-well plate. Samples without PI-stained cells served as the negative control. After incubation, cells were washed and resuspended in 100 μL PBS. The fluorescence reading of the samples (excitation at 535 nm, emission at 617 nm) and OD600 nm were measured by a microplate reader (BioTek, Winooski, Vermont, United States). The fluorescence intensity of each sample was normalized with OD600 nm. The normalized fluorescence intensity of each sample was subtracted from the background signal of the unstained negative sample. The obtained fluorescence intensity of the positive control sample (boiled dead cells) was considered 0% cell survival. […] Cell survival of different age time point samples were calculated by normalizing the fluorescence intensity with positive control sample (boiled cells).
The prototrophic yeast strain (CEN.PK113-7D) was grown in the synthetic defined medium with indicated concentrations of rapamycin in 96-well plates at 30° C. A total of 30 samples of individual rapamycin concentration was tested with DMSO control (0 nM rapamycin) for Z-factor analysis. […] The chronological lifespan of the aged cells was determined by the outgrowth method in YPD liquid medium. […] At chronological age point day 4, 3 μL culture were transferred to a second 96-well plate containing 200 μL YPD medium. […] The CLS of different concentrations of rapamycin incubated cells was determined using the propidium iodide fluorescence-based method (FIG. 2C). […] Z-factor of different concentrations of rapamycin was analyzed using the formula Z=1−[3×(standard deviation of control sample+standard deviation of rapamycin sample)/(mean of control sample−mean of rapamycin sample)].
High-throughput screening of various chemicals was tested using the same protocol for the propidium iodide fluorescence-based method as described above. The prototrophic yeast strain (CEN.PK113-7D) was grown in the synthetic defined medium with different chemical reagents with a single testing concentration (Table 1) in addition to eight replicates of DMSO and water controls in 96-well plates at 30° C.

[2] = test system: prototrophic yeast strain (CEN.PK113-7D); assay: Yeast outgrowth in YPD liquid medium (CLS of aged cells); conditions: 100 μM tested; outgrowth OD600 nm in YPD after 24 h, age point day 14
Procedure: This quantification was performed by using the formula,
The CLS of the aged cells was further determined by the yeast outgrowth in YPD liquid medium method as described above. […] At chronological age point day 14, 3-μL of culture were transferred to a second 96-well plate containing 200 μL YPD medium.

[3] = test system: prototrophic yeast strain (CEN.PK113-7D); assay: Yeast cell growth (OD600 nm) with rapamycin in SD medium
Procedure: Chronological lifespan (CLS) experiments were conducted in 96-well plates with 200 μL yeast culture. The prototrophic wild-type yeast strain (CEN.PK113-7D) and snf1Δ deletion strains were grown in the SD medium in 96-well plates at 30° C. Saccharomyces cerevisiae BY4743 strain was grown in the SD medium supplemented with histidine (40 mg/L), leucine (160 mg/L), and uracil (40 mg/L) in 96-well plates at 30° C. For assays testing the effect of rapamycin, cellular inoculum was transferred into 96-well plates containing serially double-diluted concentrations (0 to 10 nM) of rapamycin. For calorie restriction assay, cellular inoculums were prepared in SD medium containing 2% w/v, 0.5% w/v, and 0.25% w/v glucose and transferred to 96-well plates. […] Cells were incubated at 30° C., and the growth was measured at different time points. […] Cell survival was quantified at various age time points by three different approaches: (i) propidium iodide fluorescence-based method, (ii) outgrowth in YPD liquid medium and (iii) spotting assay (FIG. 1).
The effect of rapamycin on the CLS of a yeast strain was studied to examine the validity of the inventive protocol. […] Cells were aged with different concentrations of rapamycin in the SD medium and their respective growth at different time points (24 hours, 48 hours and 72 hours) were measured. […]

For `O=C(O)[C@@H]1CCCN1` [I-pyrrolidine-2-carboxylic acid], the “Yeast CLS increase” value [1] was “No”, the PI intensity [1] was 80,551.7 and the Outgrowth [2] was 0.1.
In the case of `O=C(Oc1nc2[nH]c(=O)[nH]c(=O)c2[nH]1)c1cccnc1` [Xanthinol Nicotinate], the “Yeast CLS increase” value [1] is reported as “No”.
`CO[C@H]1C[C@@H]2CC[C@@H](C)[C@@](O)(O2)C(=O)C(=O)N2CCCC[C@H]2C(=O)O[C@H]([C@H](C)C[C@@H]2CC[C@@H](O)[C@H](OC)C2)CC(=O)[C@H](C)/C=C(\C)[C@@H](O)[C@@H](OC)C(=O)[C@H](C)C[C@H](C)/C=C/C=C/C=C/1C` [Rapamycin] was tested, and the “survival of aged cells” value ([1]; 5 nM and 10 nM, day 4 (without rapamycin approx. 50%)) was “approximately 75%”, the “survival of aged cells” value ([1]; day 7 (without rapamycin less than 20%)) was “approximately 70%” and the “time to cell growth saturation” value ([3]; 5 nM or less rapamycin) was “approximately 24 hours”. The “time to cell growth saturation” value ([3]; 10 nM rapamycin (slowed cell growth)) was 48 h.
`OC[C@H]1O[C@H](CO)[C@@H](O)[C@@H]1O` [2,5-anhydromannitol, 2,5-anhydro-D-mannitol] was tested, and the “extension of CLS of yeasts” value ([1]; screen, PI method) was “extend the CLS of yeasts”.
In the case of Aliskiren (hemiumarate), the PI intensity [1] is reported as 73,607.3.
